Laboratory results from patent US7276508B2, “Indole derivatives useful for the treatment of CNS disorders” (H. Lundbeck A/S, priority 2000, dated 2007).
Structures can show the parent of a compound that is named as a salt.

test system: not given; assay: not given; conditions: not given

Structure (SMILES)	melting point [°C]
O=C1CCc2ccccc2N1CCCCN1CCC(c2c[nH]c3ccc(F)cc23)CC1 (as salt: hydrochloride) [Compound 4, 5-Fluoro-3-{1-[4-(2-oxo-3,4-dihydro-2H-quinolin-1-yl)butan-1-yl]piperidin-4-yl}-1H-indole]	212 to 213
O=C1CCc2ccccc2N1CCCN1CC=C(c2c[nH]c3ccc(F)cc23)CC1 (as salt: oxalate) [Compound 3a, 5-Fluoro-3-{1-[3-(2-oxo-3,4-dihydro-2H-quinolin-1-yl)propan-1-yl]-3,6-dihydro-2H-pyridin-4-yl}-1H-indole]	220 to 223
O=C(CCCN1CCC(c2c[nH]c3ccc(F)cc23)CC1)N1CCc2ccccc2C1 [Compound 7, 5-Fluoro-3-{1-[4-(3,4-dihydro-1H-isoquinolin-2-yl)-4-oxobutan-1-yl]piperidin-4-yl}-1H-indole]	146 to 148

biological target: T1, human cloned dopamine D4.2 receptors (Homo sapiens, UniProt P21917, DEL265-296); assay: Inhibition of the binding of [3H]YM-09151-2 to human dopamine D4 receptors; conditions: [3H]YM-09151-2 0.06 nM, membranes of CHO cells; read-out: D4-bind. IC50
T1 construct: expressed in transfected cells; host or cells: CHO cells (membranes)
T1 sequence (P21917 with tags, fused parts or gaps DEL265-296): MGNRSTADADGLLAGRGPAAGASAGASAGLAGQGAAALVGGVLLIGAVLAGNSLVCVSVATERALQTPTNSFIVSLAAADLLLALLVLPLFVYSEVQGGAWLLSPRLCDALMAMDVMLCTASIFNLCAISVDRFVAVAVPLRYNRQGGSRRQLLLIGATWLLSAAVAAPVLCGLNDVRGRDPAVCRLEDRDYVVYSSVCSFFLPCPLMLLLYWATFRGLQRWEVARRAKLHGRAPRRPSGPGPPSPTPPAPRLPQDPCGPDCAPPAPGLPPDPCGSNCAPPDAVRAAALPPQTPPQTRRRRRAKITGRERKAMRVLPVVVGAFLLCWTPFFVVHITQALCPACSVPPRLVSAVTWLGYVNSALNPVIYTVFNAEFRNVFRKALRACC
Experimental: Inhibition of the Binding of [^3H]YM-09151-2 to Human Dopamine D4 Receptors
By this method, the inhibition by drugs of the binding of [^3H]YM-09151-2 (0.06 nM) to membranes of human cloned dopamine D4.2 receptors expressed in CHO-cells is determined in vitro. Method modified from NEN Life Science Products, Inc., technical data certificate PC2533-10/96.

Structure (SMILES)	IC50 [nM]
O=C1CCc2ccccc2N1CCCN1CCC(c2c[nH]c3ccc(F)cc23)CC1 [Compound 2a, 5-Fluoro-3-{1-[3-(2-oxo-3,4-dihydro-2H-quinolin-1-yl)propan-1-yl]piperidin-4-yl}-1H-indole]	0.58
O=C1CCc2ccccc2N1CCCCCN1CCC(c2c[nH]c3ccc(F)cc23)CC1 [Compound 2b, 5-Fluoro-3-{1-[5-(2-oxo-3,4-dihydro-2H-quinolin-1-yl)pentan-1-yl]piperidin-4-yl}-1H-indole]	12
O=C1CCc2ccccc2N1CCCN1CCC(c2c[nH]c3ccc(Cl)cc23)CC1 [Compound 2c, 5-Chloro-3-{1-[3-(2-oxo-3,4-dihydro-2H-quinolin-1-yl)propan-1-yl]piperidin-4-yl}-1H-indole]	0.69
O=C1CCc2ccccc2N1CCCCN1CCC(c2c[nH]c3ccc(Cl)cc23)CC1 [Compound 2d, 5-Chloro-3-{1-[4-(2-oxo-3,4-dihydro-2H-quinolin-1-yl)butan-1-yl]piperidin-4-yl}-1H-indole]	8
O=C1CCc2ccccc2N1CCCCCN1CCC(c2c[nH]c3ccc(Cl)cc23)CC1 [Compound 2e, 5-Chloro-3-{1-[5-(2-oxo-3,4-dihydro-2H-quinolin-1-yl)pentan-1-yl]piperidin-4-yl}-1H-indole]	12
O=C1COc2ccccc2N1CCCCN1CCC(c2c[nH]c3ccc(F)cc23)CC1 [Compound 2g, 5-Fluoro-3-{1-[4-(3-oxo-3,4-dihydro-2H-1,4-benzoxazin-4-yl)butan-1-yl]piperidin-4-yl}-1H-indole]	7.5
O=C1COc2ccccc2N1CCCCN1CCC(c2c[nH]c3ccc(Cl)cc23)CC1 [Compound 2h, 5-Chloro-3-{1-[4-(3-oxo-3,4-dihydro-2H-1,4-benzoxazin-4-yl)butan-1-yl]piperidin-4-yl}-1H-indole]	10
O=C1CCc2ccccc2N1CCCN1CC=C(c2c[nH]c3ccc(F)cc23)CC1 [Compound 3a, 5-Fluoro-3-{1-[3-(2-oxo-3,4-dihydro-2H-quinolin-1-yl)propan-1-yl]-3,6-dihydro-2H-pyridin-4-yl}-1H-indole]	0.71
O=C1CCc2ccccc2N1CCCCN1CC=C(c2c[nH]c3ccc(F)cc23)CC1 [Compound 3b, 5-Fluoro-3-{1-[4-(2-oxo-3,4-dihydro-2H-quinolin-1-yl)butan-1-yl]-3,6-dihydro-2H-pyridin-4-yl}-1H-indole]	5
O=C1CCc2ccccc2N1CCCCCN1CC=C(c2c[nH]c3ccc(F)cc23)CC1 [Compound 3c, 5-Fluoro-3-{1-[5-(2-oxo-3,4-dihydro-2H-quinolin-1-yl)pentan-1-yl]-3,6-dihydro-2H-pyridin-4-yl}-1H-indole]	15
O=C1CCc2ccccc2N1CCCCN1CCC(c2c[nH]c3ccc(F)cc23)CC1 [Compound 4, 5-Fluoro-3-{1-[4-(2-oxo-3,4-dihydro-2H-quinolin-1-yl)butan-1-yl]piperidin-4-yl}-1H-indole]	4.8
Fc1ccc2[nH]cc(C3=CCN(CCCN4CCCc5ccccc54)CC3)c2c1 [Compound 9l, 5-Fluoro-3-{1-[3-(3,4-dihydro-2H-quinolin-1-yl)propan-1-yl]-3,6-dihydro-2H-pyridin-4-yl}-1H-indole]	0.51
Fc1ccc2[nH]cc(C3=CCN(CCCCN4CCCc5ccccc54)CC3)c2c1 [Compound 9m, 5-Fluoro-3-{1-[4-(3,4-dihydro-2H-quinolin-1-yl)butan-1-yl]-3,6-dihydro-2H-pyridin-4-yl}-1H-indole]	17
Fc1ccc2[nH]cc(C3=CCN(CCCCCN4CCCc5ccccc54)CC3)c2c1 [Compound 9n, 5-Fluoro-3-{1-[5-(3,4-dihydro-2H-quinolin-1-yl)pentan-1-yl]-3,6-dihydro-2H-pyridin-4-yl}-1H-indole]	53

same assay, conditions: at 50 nM compound; [3H]YM-09151-2 0.06 nM, membranes of CHO cells

Structure (SMILES)	D4-bind. % inhibition of binding at 50 nM [%]
O=C1c2ccccc2CCN1CCCN1CCC(c2c[nH]c3ccc(F)cc23)CC1 [Compound 1b]	97
O=C1c2ccccc2CCN1CCCCN1CCC(c2c[nH]c3ccc(F)cc23)CC1 [Compound 1c]	95
O=C(CCCCN1CCC(c2c[nH]c3c(Cl)cccc23)CC1)N1CCc2ccccc2C1 [Compound 10l]	82

same assay, conditions: at 50 nM compound; [3H]YM-09151-2 0.06 nM, membranes of CHO cells; read-out: D4-bind. % inhibition of binding at 50 nM

Structure (SMILES)	inhibition at 0.05 µM [%]
O=C1CCc2ccccc2N1CCN1CCC(c2c[nH]c3ccc(F)cc23)CC1 [Compound 1a, 5-Fluoro-3-{1-[2-(2-oxo-3,4-dihydro-2H-quinolin-1-yl)ethyl]piperidin-4-yl}-1H-indole]	92
O=C1CCc2ccccc2N1CCCCN1CCC(c2c[nH]c3c(Cl)cccc23)CC1 [Compound 2f, 7-Chloro-3-{1-[4-(2-oxo-3,4-dihydro-2H-quinolin-1-yl)butan-1-yl]piperidin-4-yl}-1H-indole]	78

The remaining lines, values ahead:

inhibition at 0.05 µM [%]	Structure (SMILES)
93	O=C(CCN1CCC(c2c[nH]c3cccc(F)c23)CC1)N1CCc2ccccc2C1 [Compound 10a, 4-Fluoro-3-{1-[3-(3,4-dihydro-1H-isoquinolin-2-yl)-3-oxopropan-1-yl]piperidin-4-yl}-1H-indole]
81	O=C(CCCN1CCC(c2c[nH]c3cccc(F)c23)CC1)N1CCc2ccccc2C1 [Compound 10b, 4-Fluoro-3-{1-[4-(3,4-dihydro-1H-isoquinolin-2-yl)-4-oxobutan-1-yl]piperidin-4-yl}-1H-indole]
21	O=C(CCCCCN1CCC(c2c[nH]c3cccc(F)c23)CC1)N1CCc2ccccc2C1 [Compound 10c, 4-Fluoro-3-{1-[6-(3,4-dihydro-1H-isoquinolin-2-yl)-6-oxohexan-1-yl]piperidin-4-yl}-1H-indole]
86	O=C(CCCN1CCC(c2c[nH]c3cccc(Cl)c23)CC1)N1CCc2ccccc2C1 [Compound 10d, 4-Chloro-3-{1-[4-(3,4-dihydro-1H-isoquinolin-2-yl)-4-oxobutan-1-yl]piperidin-4-yl}-1H-indole]
25	O=C(CCCCN1CCC(c2c[nH]c3cccc(Cl)c23)CC1)N1CCc2ccccc2C1 [Compound 10e, 4-Chloro-3-{1-[5-(3,4-dihydro-1H-isoquinolin-2-yl)-5-oxopentan-1-yl]piperidin-4-yl}-1H-indole]
17	O=C(CCCCCN1CCC(c2c[nH]c3cccc(Cl)c23)CC1)N1CCc2ccccc2C1 [Compound 10f, 4-Chloro-3-{1-[6-(3,4-dihydro-1H-isoquinolin-2-yl)-6-oxohexan-1-yl]piperidin-4-yl}-1H-indole]
65	O=C(CCCCN1CCC(c2c[nH]c3ccc(F)cc23)CC1)N1CCc2ccccc2C1 [Compound 10g, 5-Fluoro-3-{1-[5-(3,4-dihydro-1H-isoquinolin-2-yl)-5-oxopentan-1-yl]piperidin-4-yl}-1H-indole]
50	O=C(CCCCCN1CCC(c2c[nH]c3ccc(F)cc23)CC1)N1CCc2ccccc2C1 [Compound 10h, 5-Fluoro-3-{1-[6-(3,4-dihydro-1H-isoquinolin-2-yl)-6-oxohexan-1-yl]piperidin-4-yl}-1H-indole]
94	O=C(CCN1CCC(c2c[nH]c3cc(Cl)ccc23)CC1)N1CCc2ccccc2C1 [Compound 10i, 6-Chloro-3-{1-[3-(3,4-dihydro-1H-isoquinolin-2-yl)-3-oxopropan-1-yl]piperidin-4-yl}-1H-indole]
70	O=C(CCCCCN1CCC(c2c[nH]c3cc(Cl)ccc23)CC1)N1CCc2ccccc2C1 [Compound 10j, 6-Chloro-3-{1-[6-(3,4-dihydro-1H-isoquinolin-2-yl)-6-oxohexan-1-yl]piperidin-4-yl}-1H-indole]
95	O=C(CCCN1CCC(c2c[nH]c3c(Cl)cccc23)CC1)N1CCc2ccccc2C1 [Compound 10k, 7-Chloro-3-{1-[4-(3,4-dihydro-1H-isoquinolin-2-yl)-4-oxobutan-1-yl]piperidin-4-yl}-1H-indole]
69	O=C(CCCCCN1CCC(c2c[nH]c3c(Cl)cccc23)CC1)N1CCc2ccccc2C1 [Compound 10m, 7-Chloro-3-{1-[6-(3,4-dihydro-1H-isoquinolin-2-yl)-6-oxohexan-1-yl]piperidin-4-yl}-1H-indole]
